# Active and inactive are the calls of the source.
# Assays:
# [1] = Luminescence Cell-Based Dose Retest to Confirm Inhibitors of Cancer Stem Cells. [Related pubchem assays (depositor defined):AID2717, AID2721]; format: functional; conditions: Homo sapiens
# [2] = molecular target: T1, Heat shock factor protein 1 (Mus musculus, UniProt P38532); assay: decrease of HSF1-responsive luciferase luminescence – cell-based, NIH3T3, dose retest, confirmation (AID 2382); format: functional;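 also: NIH3T3 fibroblasts with HSF1-driven luciferase reporter stressed by proteasome inhibitor MG132; luminescence from HSF1-driven luciferase expression after 8 hours of MG132 stress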
# T1 sequence (P38532 whole entry): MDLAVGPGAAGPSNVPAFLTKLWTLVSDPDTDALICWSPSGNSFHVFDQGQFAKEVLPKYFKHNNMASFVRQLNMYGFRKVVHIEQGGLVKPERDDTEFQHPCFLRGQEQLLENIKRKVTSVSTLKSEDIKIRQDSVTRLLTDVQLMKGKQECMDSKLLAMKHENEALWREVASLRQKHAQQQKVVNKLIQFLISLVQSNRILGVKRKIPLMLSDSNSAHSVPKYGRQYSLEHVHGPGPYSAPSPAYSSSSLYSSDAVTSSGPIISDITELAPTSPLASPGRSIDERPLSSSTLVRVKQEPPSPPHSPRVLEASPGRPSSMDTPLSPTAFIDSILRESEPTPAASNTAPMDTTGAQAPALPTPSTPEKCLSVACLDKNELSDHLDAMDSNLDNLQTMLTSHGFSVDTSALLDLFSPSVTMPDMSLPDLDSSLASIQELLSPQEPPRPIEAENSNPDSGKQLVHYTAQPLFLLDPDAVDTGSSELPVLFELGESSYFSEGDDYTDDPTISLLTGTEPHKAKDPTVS
# [3] = viability of uninfected HEp-2 cells – cell-based, HTS, cytotoxicity control for RSV inhibitor project, dose response (AID 2410); format: functional; conditions: human respiratory syncytial virus
# [4] = molecular target: Cytochrome P450 3A4 (Homo sapiens, UniProt P08684);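 also: CYP3A4 tested as one member of a cytochrome P450 panel screen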
# [5] = molecular target: Cytochrome P450 2C19 (Homo sapiens, UniProt P33261); assay: Cytochrome panel assay with activity outcomes. Panel member name: p450-cyp2c19 Compounds with AC50 equal or less than 10 uM are considered active; format: functional; conditions: read-out: AC50
# [6] = alpha-synuclein stem-loop luciferase translation blockers – H4 neuroglioma cells, luminescence, confirmation (AID 1988); format: functional, cell-based
# [7] = luciferase reporter signal suppression in cells – H4 neuroglioma cells, luminescence, dose response (AID 1990); format: functional, cell-based
# [8] = Luminescence Cell-Based Dose Response HTS to Identify Inhibitors of 5'UTR Stem-Loop Driven Prion Protein mRNA Translation in H4 Neuroglioblastoma Cells. [Related pubchem assays: 1827 (Project Summary), 1813 (Primary HTS)]; format: functional
# [9] = molecular target: Cytochrome P450 2C9 (Homo sapiens, UniProt P11712)
# [10] = Trypanosoma cruzi growth suppression in host cells – NIH3T3 host cells, beta-gal luminescence, confirmation (AID 2044); format: functional, cell-based;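 also: intracellular parasites grown in NIH/3T3 mouse fibroblasts as host cells; luminescent beta-galactosidase reporter signal from transgenic T. cruzi replicating inside host cells; inhibitors lower the luminescence signal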
# [11] = NIH3T3 cell viability loss – ATP luminescence, mouse fibroblasts, counter-screen, dose response (AID 2010); format: functional, cell-based;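 also: cells exposed to compound for about 90 hours before reading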
# [12] = molecular target: T2, Cytochrome P450 1A2 (Homo sapiens, UniProt P05177);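 also: PubChem cytochrome P450 panel assay, CYP1A2 panel member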
# T2 sequence (P05177 whole entry): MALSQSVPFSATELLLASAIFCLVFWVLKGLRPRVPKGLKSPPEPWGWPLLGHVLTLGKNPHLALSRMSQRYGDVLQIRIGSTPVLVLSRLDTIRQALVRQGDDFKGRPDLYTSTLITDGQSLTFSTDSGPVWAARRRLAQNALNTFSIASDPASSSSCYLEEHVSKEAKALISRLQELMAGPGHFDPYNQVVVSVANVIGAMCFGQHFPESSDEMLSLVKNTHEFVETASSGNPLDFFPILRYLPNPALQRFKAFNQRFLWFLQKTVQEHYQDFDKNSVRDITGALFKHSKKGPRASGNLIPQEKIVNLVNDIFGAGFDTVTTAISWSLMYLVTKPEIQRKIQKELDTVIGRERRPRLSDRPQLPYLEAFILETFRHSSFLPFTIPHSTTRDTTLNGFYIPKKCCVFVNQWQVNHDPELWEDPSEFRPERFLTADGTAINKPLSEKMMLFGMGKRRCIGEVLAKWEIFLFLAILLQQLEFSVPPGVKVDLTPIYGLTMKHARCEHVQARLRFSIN
# [13] = molecular target: T3, Corticotropin-releasing factor receptor 2/Corticotropin-releasing factor-binding protein (Homo sapiens, UniProt P24387+Q13324); assay: activators of CRF receptor 2 with binding protein – uHTS hits, confirmation (AID 602473); format: functional; conditions: read-out: EC50_Mean
# T3 sequence (Q13324 whole entry): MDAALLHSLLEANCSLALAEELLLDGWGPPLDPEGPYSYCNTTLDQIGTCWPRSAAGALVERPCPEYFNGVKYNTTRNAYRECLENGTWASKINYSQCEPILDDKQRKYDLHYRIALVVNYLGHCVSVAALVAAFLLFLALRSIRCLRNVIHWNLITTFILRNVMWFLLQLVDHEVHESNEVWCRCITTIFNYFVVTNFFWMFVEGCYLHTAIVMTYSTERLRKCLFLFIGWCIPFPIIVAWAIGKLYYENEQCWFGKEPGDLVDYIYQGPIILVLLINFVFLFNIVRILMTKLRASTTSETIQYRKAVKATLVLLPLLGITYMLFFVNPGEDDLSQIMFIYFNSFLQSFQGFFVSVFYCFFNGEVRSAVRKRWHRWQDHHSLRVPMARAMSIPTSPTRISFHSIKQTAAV
# T3 sequence (P24387 whole entry): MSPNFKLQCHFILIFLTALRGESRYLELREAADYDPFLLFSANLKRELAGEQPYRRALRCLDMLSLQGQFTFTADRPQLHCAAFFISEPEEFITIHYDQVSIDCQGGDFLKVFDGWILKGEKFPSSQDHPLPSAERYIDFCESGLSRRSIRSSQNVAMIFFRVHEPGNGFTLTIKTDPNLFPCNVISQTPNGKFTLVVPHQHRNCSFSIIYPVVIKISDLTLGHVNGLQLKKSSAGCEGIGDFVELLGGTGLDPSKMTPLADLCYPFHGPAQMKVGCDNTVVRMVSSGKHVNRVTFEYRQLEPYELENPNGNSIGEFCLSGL
# Chain of Cytochrome P450 3A4 (P08684 whole entry): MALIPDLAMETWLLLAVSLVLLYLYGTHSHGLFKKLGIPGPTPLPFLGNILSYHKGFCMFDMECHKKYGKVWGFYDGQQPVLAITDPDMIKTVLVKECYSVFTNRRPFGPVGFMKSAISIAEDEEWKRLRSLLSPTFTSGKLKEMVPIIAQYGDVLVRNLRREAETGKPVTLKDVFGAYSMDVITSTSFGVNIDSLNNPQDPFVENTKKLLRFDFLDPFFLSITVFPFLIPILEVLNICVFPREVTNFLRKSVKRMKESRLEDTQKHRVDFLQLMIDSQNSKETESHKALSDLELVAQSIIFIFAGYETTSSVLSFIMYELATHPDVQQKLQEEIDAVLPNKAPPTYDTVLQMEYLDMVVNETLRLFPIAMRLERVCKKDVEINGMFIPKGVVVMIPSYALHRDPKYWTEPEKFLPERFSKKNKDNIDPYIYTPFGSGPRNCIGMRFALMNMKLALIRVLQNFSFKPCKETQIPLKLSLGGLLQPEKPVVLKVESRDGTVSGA
# Chain of Cytochrome P450 2C19 (P33261 whole entry): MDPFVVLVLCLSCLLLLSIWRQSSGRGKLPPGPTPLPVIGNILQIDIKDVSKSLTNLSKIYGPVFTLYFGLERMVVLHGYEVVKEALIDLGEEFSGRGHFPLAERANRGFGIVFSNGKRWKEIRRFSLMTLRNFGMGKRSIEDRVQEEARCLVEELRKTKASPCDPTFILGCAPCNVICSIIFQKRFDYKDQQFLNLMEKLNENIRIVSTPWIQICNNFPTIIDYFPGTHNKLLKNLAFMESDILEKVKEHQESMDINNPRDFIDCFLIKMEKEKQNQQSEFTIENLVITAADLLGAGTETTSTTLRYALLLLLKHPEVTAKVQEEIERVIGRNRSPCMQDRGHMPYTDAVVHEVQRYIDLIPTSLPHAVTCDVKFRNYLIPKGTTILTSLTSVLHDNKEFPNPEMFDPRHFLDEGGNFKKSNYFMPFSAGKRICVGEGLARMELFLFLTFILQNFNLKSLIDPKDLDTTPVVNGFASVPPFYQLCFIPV
# Chain of Cytochrome P450 2C9 (P11712 whole entry): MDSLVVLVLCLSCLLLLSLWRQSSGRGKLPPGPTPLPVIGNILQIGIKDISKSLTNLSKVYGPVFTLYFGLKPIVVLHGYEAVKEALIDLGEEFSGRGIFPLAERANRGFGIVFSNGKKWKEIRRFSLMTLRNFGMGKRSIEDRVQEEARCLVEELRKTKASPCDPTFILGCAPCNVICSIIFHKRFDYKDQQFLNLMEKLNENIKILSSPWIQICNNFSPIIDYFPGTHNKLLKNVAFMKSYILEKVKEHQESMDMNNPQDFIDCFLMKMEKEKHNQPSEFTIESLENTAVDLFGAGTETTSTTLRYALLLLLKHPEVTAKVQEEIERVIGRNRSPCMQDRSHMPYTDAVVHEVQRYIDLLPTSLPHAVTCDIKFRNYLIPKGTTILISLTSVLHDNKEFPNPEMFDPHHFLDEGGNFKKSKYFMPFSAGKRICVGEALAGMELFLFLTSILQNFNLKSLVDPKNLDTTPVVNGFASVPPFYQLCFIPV
structure (smiles),measurement,setting,value
C/C(NNc1ccccc1)=C1/C(=O)NC(=O)N(Cc2ccccc2)C1=O,AC50,[1],1.03 µM (active)
CCCCc1ccc(NC(=O)Nc2cc(C)nn2C)cc1,AC50,[1],3.31 µM (active)
COc1cc2cc(CN(C(=O)NC3CCCCC3)C3CCCC3)c(O)nc2cc1OC,EC50,[2],> 195 µM (not active)
CCN1CCN(Cc2ccc(NC(=O)c3cc(NC(=O)c4cnnc5ccccc45)cc(OC)c3)cc2C(F)(F)F)CC1,CC50,[3],29 µM (active)
COC(=O)[C@@H]1CC[C@H](C)[C@@H](c2ccc(C)cc2)N1C(=O)c1ccc(/C=N\OC[C@@H](O)COCc2ccco2)cc1,AC50,[4],1.26 µM (inconclusive)
same,AC50,[5],2.51 µM (inconclusive)
CC(C)CC1Nc2ccc(C(=O)NCCCN3CCOCC3)cc2NC1=O (stereo not drawn),EC50,[2],> 195 µM (not active)
COc1ccccc1C(=O)N/C(=C\c1cn(S(=O)(=O)N(C)C)c2ccccc12)C(=O)NCCN1CCOCC1,EC50,[2],> 195 µM (not active)
CCSc1nnc(NC(=O)C(Cc2ccccc2)n2cccc2)s1 (stereo not drawn),EC50,[2],> 195 µM (not active)
O=C(NCCCN1CCOCC1)c1ccc(-n2nc(C(F)(F)F)cc2-c2cccs2)cc1,EC50,[6],16.4 µM (active)
same,EC50,[7],11.6 µM (active)
same,EC50,[8],34.9 µM (active)
N#CN(CC(N)=O)c1nc(N2CCCCC2)nc(N2CCCCC2)n1,AC50,[9],10 µM (inconclusive)
same,AC50,[5],22.4 µM (inconclusive)
O=C(Nc1ccc2ccccc2c1)c1cn(-c2ccccc2)nc1-c1cccs1,EC50,[10],1.86 µM (active)
same,EC50,[11],> 60 µM (not active)
same,CC50,[3],18.6 µM (active)
Cc1oc(CC(C)C)cc1C(=O)Nc1cccc2ccccc12,AC50,[1],5 µM (active)
N#Cc1c(-c2ccc3c(c2)OCO3)csc1N,EC50,[2],> 195 µM (not active)
COCC(C)OC(=O)C(C#N)c1nc2ccccc2nc1N1CCN(Cc2ccccc2)CC1 (stereo not drawn),EC50,[6],23.7 µM (active)
same,EC50,[7],17.6 µM (active)
same,EC50,[8],> 120 µM (not active)
COc1ccc(NS(=O)(=O)c2ccc(-c3ccccn3)s2)cc1,EC50,[2],> 195 µM (not active)
C=C(C)Cn1c(NCCC)nc2c1c(=O)n(C)c(=O)n2C,EC50,[2],> 195 µM (not active)
Cc1cc([N+](=O)[O-])ccc1NC(=O)CCC(=O)N1CCCCC1,EC50,[2],> 195 µM (not active)
Cc1cccc(-c2nnc3n2N=C(c2ccccc2)CS3)c1,EC50,[6],12.4 µM (active)
same,EC50,[7],> 120 µM (not active)
same,EC50,[8],> 120 µM (not active)
C[C@]12CC[C@H]3c4ccc(OC[C@H]5CO5)cc4CC[C@H]3[C@H]1CC[C@@H]2O,AC50,[9],3.16 µM (inconclusive)
same,AC50,[5],3.16 µM (inconclusive)
O=S(=O)(Nc1nc2ccccc2nc1N1CCN(c2ccccc2F)CC1)c1ccc(Cl)cc1,AC50,[1],4.82 µM (active)
CC(C)OCCCNC(=O)C1CC(=O)N(C2CCCCCCC2)C1 (stereo not drawn),AC50,[4],25.1 µM (inconclusive)
same,AC50,[5],17.8 µM (inconclusive)
COC(=O)c1c(NC(=O)/C=C/c2ccc3c(c2)OCO3)sc(C)c1C,AC50,[1],4.17 µM (active)
CCN(CC)c1nc2c(c(=O)[nH]c(=O)n2C)n1CCOc1ccccc1,EC50,[2],> 195 µM (not active)
CN(c1ccccc1)S(=O)(=O)c1nnc(NC(=O)COc2ccccc2F)s1,EC50,[2],> 195 µM (not active)
CC(Nc1ccccc1CO)C(=O)Nc1cccc(Cl)c1Cl (stereo not drawn),EC50,[6],12.9 µM (active)
same,EC50,[7],7.64 µM (active)
same,EC50,[8],0.12 µM (active)
Cc1noc(C)c1CSCC(=O)Nc1ccc(S(=O)(=O)C(F)F)cc1,EC50,[2],> 195 µM (not active)
O=C(c1ccc2c(=O)n(Cc3ccccc3)c(=S)[nH]c2c1)N1CCOCC1,EC50,[2],> 195 µM (not active)
C=CCn1c(SCC(=O)NCCc2ccccc2)nnc1C(C)NC(=O)c1cccs1 (stereo not drawn),EC50,[2],> 195 µM (not active)
COc1c(Br)cc([N+](=O)[O-])c(OC)c1C(=O)NC(=O)Nc1cc(Cl)cc(Cl)c1,EC50,[6],15.1 µM (active)
same,EC50,[7],> 120 µM (not active)
same,EC50,[8],17.8 µM (active)
COc1cccc(C(c2nnnn2Cc2ccco2)N2CCN(c3cccc(C)c3C)CC2)c1OC (stereo not drawn),CC50,[3],18.5 µM (active)
CCCCCc1nc2c(c(=O)c3ccccc3n2C)c(=O)n1Cc1ccc(OC)cc1,CC50,[3],> 50 µM (active)
Cc1ccc2nc(CC(=O)c3ccc4ccccc4c3)c(O)nc2c1,AC50,[4],3.98 µM (inconclusive)
same,AC50,[12],2 µM (inconclusive)
same,AC50,[5],0.794 µM (inconclusive)
CCN(C(=O)C1CCCN(c2ncnc3c2nc2n3CCCCC2)C1)c1cccc(Cl)c1 (stereo not drawn),CC50,[3],10.7 µM (active)
CCC(C)C1NC(=S)N(C2CCCCC2)C1=O (stereo not drawn),AC50,[4],17.8 µM (inconclusive)
same,EC50,[6],> 120 µM (not active)
same,EC50,[7],> 120 µM (not active)
same,EC50,[8],> 120 µM (not active)
CCc1nc2c(c(=O)c3ccccc3n2C)c(=O)n1C1CCCCCC1,EC50,[13],6.21 µM (active)
same,CC50,[3],20.7 µM (active)
Cc1noc(C)c1COC(=O)c1cccc(N(C)C)c1,CC50,[3],11.9 µM (active)
CCOc1ccc(/C=N/NC(=O)COc2ccccc2-c2ccccc2)cc1,AC50,[1],4.37 µM (active)
CCOc1ccccc1-n1c(SCC(=O)Nc2ccc(CC)cc2)nc2nnc(C)c-2c1N,EC50,[6],9.77 µM (active)
same,EC50,[7],> 60 µM (not active)
same,CC50,[3],45.1 µM (active)
O=C(CN1CCN(Cc2ccccc2Cl)C1=O)NCc1ccccn1,EC50,[6],> 120 µM (not active)
same,EC50,[7],> 120 µM (not active)
same,EC50,[8],> 120 µM (not active)
COc1cc2c(cc1OC)CN(C(=O)CCCOc1ccc(Cl)cc1Cl)CC2,CC50,[3],24.7 µM (active)
O=[N+]([O-])c1ccc(N/N=C/c2c[nH]c3ccccc23)c(S(=O)(=O)Nc2ccc(Cl)cc2)c1,AC50,[1],1.15 µM (active)
COC(=O)N1CCC2(CCCN(C(=O)Nc3cccc(C#N)c3)C2)CC1,AC50,[4],6.31 µM (inconclusive)
same,AC50,[5],10 µM (inconclusive)
CCOc1ccc(N/C(=N/N)c2ccc3ccccc3n2)cc1,EC50,[2],> 195 µM (not active)
O=C(NNC(=O)C12CC3CC(CC(C3)C1)C2)c1ccccc1F,EC50,[6],10.2 µM (active)
same,EC50,[7],17.7 µM (active)
same,EC50,[8],> 120 µM (not active)

# Source: ChEMBL document CHEMBL1201862, “PubChem BioAssay data set” (2004)
